Broadly, the pIC50 is the IC50 on a negative log10 scale, so that one unit is a factor of ten. A word on the inhibition: it is how much of the control response was suppressed.

The structures appear in SMILES notation. pIC50: −log10 of the molar value.

In one experiment the target is T1, rat TRPA1 (Rattus norvegicus, UniProt Q6RI86).
T1 construct: expressed in transfected cells; host or cells: CHO cells (Zeocin selection)
Nature of the experiment: 45Calcium uptake assay: inhibition of AITC induced cellular uptake of radioactive calcium, rat TRPA1 expressing CHO cells. It is filed as cell-based. The settings on record: AITC 10 μM; for pIC50: class symbols; for inhibition at 10 µM: 10.0 μM compound, read-out: rat TRPA1 Percentage inhibition at 10.0 μM; for inhibition at 1 µM: read-out: rat TRPA1 Percentage inhibition. In short, it runs like this: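 CHO cells expressing rat or human TRPA1 were pre-treated with compound for 10 min, then given AITC (30 μM human, 10 μM rat) plus 5 μCi/ml 45Ca2+ for 3 min; final DMSO 0.5%. Lysate radioactivity was counted by scintillation. IC50 came from nonlinear regression of concentration-response curves as % of maximal response.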

In another experiment the target is T2, human TRPA1 (Homo sapiens, UniProt O75762).
T2 construct: expressed in transfected cells; host or cells: CHO cells (G-418 selection)
T2 sequence (O75762 whole entry): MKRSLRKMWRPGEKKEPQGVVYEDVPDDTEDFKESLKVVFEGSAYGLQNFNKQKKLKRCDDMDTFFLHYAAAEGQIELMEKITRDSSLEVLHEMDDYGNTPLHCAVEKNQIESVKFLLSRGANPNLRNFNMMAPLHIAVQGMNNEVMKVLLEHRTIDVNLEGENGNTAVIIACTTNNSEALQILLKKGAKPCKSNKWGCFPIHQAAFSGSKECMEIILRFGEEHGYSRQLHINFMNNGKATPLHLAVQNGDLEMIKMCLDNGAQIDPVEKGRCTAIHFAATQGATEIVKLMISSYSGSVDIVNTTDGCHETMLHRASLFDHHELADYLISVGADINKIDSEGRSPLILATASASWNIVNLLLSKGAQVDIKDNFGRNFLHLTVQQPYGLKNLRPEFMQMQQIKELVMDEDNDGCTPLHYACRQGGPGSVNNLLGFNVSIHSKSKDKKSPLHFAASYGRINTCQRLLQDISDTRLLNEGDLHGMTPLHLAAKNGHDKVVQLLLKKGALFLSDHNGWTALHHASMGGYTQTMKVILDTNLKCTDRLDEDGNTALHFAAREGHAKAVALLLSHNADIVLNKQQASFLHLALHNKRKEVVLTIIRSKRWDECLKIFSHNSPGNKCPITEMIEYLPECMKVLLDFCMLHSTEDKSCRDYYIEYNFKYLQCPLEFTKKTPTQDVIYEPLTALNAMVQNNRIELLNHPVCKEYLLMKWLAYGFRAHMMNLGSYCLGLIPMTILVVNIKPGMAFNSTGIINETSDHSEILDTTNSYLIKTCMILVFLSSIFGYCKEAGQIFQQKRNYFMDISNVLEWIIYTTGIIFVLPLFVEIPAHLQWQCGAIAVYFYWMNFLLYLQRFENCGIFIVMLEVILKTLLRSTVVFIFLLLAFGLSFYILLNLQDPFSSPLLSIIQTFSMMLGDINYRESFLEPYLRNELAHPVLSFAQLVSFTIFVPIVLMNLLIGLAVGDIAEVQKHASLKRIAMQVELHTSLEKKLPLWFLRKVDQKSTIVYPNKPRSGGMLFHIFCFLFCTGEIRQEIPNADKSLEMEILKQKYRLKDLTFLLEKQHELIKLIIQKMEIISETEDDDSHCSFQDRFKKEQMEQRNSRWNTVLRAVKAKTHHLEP
The experiment is described as follows: 45Calcium uptake assay: inhibition of AITC induced cellular uptake of radioactive calcium, human TRPA1 expressing CHO cells. Type of experiment: cell-based. The note with it: AITC 30 μM; for inhibition at 1 µM: 1.0 μM compound, read-out: human TRPA1 Percentage inhibition at 1.0 μM; for inhibition at 10 µM: 10.0 μM compound, read-out: human TRPA1 Percentage inhibition at 10.0 μM; for pIC50: class symbols. In short, it runs like this:
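CHO cells expressing TRPA1 were preincubated 10 min with compound (0.5% DMSO final), then given AITC (30 μM human, 10 μM rat) plus 5 μCi/ml 45Ca2+ for 3 min. Lysate radioactivity measured by scintillation; IC50 obtained by nonlinear regression of % maximal response without antagonist.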

T1 sequence (Q6RI86 whole entry): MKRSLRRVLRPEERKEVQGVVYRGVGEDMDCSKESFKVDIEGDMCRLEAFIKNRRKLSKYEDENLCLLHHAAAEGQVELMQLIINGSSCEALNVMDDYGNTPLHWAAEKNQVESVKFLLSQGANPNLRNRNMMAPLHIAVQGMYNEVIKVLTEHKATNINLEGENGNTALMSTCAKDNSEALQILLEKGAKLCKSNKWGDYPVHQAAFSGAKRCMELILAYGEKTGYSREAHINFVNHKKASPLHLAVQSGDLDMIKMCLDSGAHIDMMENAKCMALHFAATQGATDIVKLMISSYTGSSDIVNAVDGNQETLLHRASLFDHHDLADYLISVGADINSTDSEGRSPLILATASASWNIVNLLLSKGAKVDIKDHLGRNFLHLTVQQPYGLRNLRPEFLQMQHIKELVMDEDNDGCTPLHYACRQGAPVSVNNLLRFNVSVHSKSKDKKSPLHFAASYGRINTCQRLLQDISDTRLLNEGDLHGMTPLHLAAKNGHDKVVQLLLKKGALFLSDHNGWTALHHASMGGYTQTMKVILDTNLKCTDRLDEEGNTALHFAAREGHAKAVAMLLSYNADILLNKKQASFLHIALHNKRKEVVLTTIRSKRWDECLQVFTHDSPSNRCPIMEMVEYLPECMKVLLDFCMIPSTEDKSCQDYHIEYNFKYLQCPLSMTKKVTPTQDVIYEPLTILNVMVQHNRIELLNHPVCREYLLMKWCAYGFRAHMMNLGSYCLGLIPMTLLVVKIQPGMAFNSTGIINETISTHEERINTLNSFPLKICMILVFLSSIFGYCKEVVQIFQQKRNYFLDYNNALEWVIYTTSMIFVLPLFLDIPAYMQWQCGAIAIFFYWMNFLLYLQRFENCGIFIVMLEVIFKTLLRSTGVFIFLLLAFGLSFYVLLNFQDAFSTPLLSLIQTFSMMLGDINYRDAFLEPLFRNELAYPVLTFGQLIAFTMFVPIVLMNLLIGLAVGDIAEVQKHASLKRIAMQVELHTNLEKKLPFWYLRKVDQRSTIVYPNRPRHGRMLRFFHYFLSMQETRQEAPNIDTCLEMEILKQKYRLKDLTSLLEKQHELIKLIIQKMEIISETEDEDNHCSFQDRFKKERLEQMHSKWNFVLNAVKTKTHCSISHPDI

Consider `Cn1c(=O)c2c(CC(=O)Nc3nc(-c4cc(F)c(OCC(C)(C)C)c(F)c4)cs3)coc2n(C)c1=O` [Example 42, N1-{4-[3,5-Difluoro-4-(2,2-dimethylpropoxy)phenyl]-1,3-thiazol-2-yl}2-(1,3-dimethyl-2,4-dioxo-1,2,3,4-tetrahydrofuro[2,3-d]pyrimidin-5-yl)acetamide], for which the pIC50 on rat TRPA1 was > 7.30. Further, at human TRPA1, the inhibition at 1 µM amounted to 96.1%, the inhibition at 10 µM stood at 99.9% and the pIC50 was > 7.30.
In the case of `Cn1c(=O)c2c(CC(=O)Nc3nc(-c4cc(Cl)c(OCC(C)(C)C)c(Cl)c4)cs3)coc2n(C)c1=O` [Example 43, N1-{4-[3,5-Dichloro-4-(2,2-dimethylpropoxy)phenyl]-1,3-thiazol-2-yl}-2-(1,3-dimethyl-2,4-dioxo-1,2,3,4-tetrahydrofuro[2,3-d]pyrimidin-5-yl)acetamide], on rat TRPA1, the inhibition at 10 µM came out at 100%, the inhibition at 1 µM amounted to 89.2% and the negative logarithm of the IC50 (pIC50) is 7.00 to 7.30. For the same molecule, on human TRPA1, the inhibition at 1 µM worked out at 99.2%, the inhibition at 10 µM is 99.7% and the pIC50 was > 7.30.
Regarding `Cn1c(=O)c2c(CC(=O)Nc3nc(-c4cc(F)c(OCC(C)(C)C)c(Cl)c4)cs3)coc2n(C)c1=O` [Example 44, N1-{4-[3-Chloro-5-fluoro-4-(2,2-dimethylpropoxy)phenyl]-1,3-thiazol-2-yl}-2-(1,3-dimethyl-2,4-dioxo-1,2,3,4-tetrahydrofuro[2,3-d]pyrimidin-5-yl)acetamide], on rat TRPA1, the inhibition at 10 µM amounted to 99.2%, the inhibition at 1 µM is 71% and the pIC50 was > 7.30. Further, at human TRPA1, the inhibition at 1 µM was 100%, the inhibition at 10 µM came out at 99.5% and the pIC50 was > 7.30.
Turning to `Cn1c(=O)c2c(CC(=O)Nc3nc(-c4cc(F)c(OCC(F)(F)F)c(F)c4)cs3)coc2n(C)c1=O` [Example 46, N1-{4-[3,5-Difluoro-4-(2,2,2-trifluoroethoxy)phenyl]-1,3-thiazol-2-yl}-2-(1,3-dimethyl-2,4-dioxo-1,2,3,4-tetrahydrofuro[2,3-d]pyrimidin-5-yl)acetamide], on rat TRPA1, the inhibition at 10 µM stood at 99.5%, the inhibition at 1 µM was found to be 96.1% and the pIC50 is 7.00 to 7.30. Besides, at human TRPA1, the inhibition at 1 µM was determined as 99.8%, the inhibition at 10 µM was 100% and the pIC50 is > 7.30.
For `Cn1c(=O)c2c(CC(=O)Nc3nc(-c4cc(Cl)c(OCC(F)(F)F)c(Cl)c4)cs3)coc2n(C)c1=O` [Example 47, N1-{4-[3,5-Dichloro-4-(2,2,2-trifluoroethoxy)phenyl]-1,3-thiazol-2-yl}2-(1,3-dimethyl-2,4-dioxo-1,2,3,4-tetrahydrofuro[2,3-d]pyrimidin-5-yl)acetamide], at rat TRPA1, the inhibition at 10 µM is 100%, the inhibition at 1 µM worked out at 86% and the pIC50 was > 7.30. Further, on human TRPA1, the inhibition at 1 µM was determined as 99.2%, the inhibition at 10 µM was determined as 99.8% and the pIC50 was > 7.30.
Consider `Cn1c(=O)c2c(CC(=O)Nc3nc(-c4cc(F)c(OCC(F)(F)F)c(Cl)c4)cs3)coc2n(C)c1=O` [Example 48, N1-{4-[3-Chloro-5-fluoro-4-(2,2,2-trifluoroethoxy)phenyl]-1,3-thiazol-2-yl}-2-(1,3-dimethyl-2,4-dioxo-1,2,3,4-tetrahydrofuro[2,3-d]pyrimidin-5-yl)acetamide], for which, on rat TRPA1, the inhibition at 10 µM is 99.2%, the inhibition at 1 µM is 99.6% and the pIC50 is > 7.30. Besides, at human TRPA1, the inhibition at 1 µM amounted to 96.6%, the inhibition at 10 µM was 95.1% and the pIC50 was > 7.30.
In the case of `Cn1c(=O)c2c(CC(=O)Nc3nc(-c4cc(F)c(OCCC(F)(F)F)c(F)c4)cs3)coc2n(C)c1=O` [Example 49, N1-{4-[3,5-Difluoro-4-(3,3,3-trifluoropropoxy)phenyl]-1,3-thiazol-2-yl}-2-(1,3-dimethyl-2,4-dioxo-1,2,3,4-tetrahydrofuro[2,3-d]pyrimidin-5-yl)acetamide], at rat TRPA1, the inhibition at 10 µM came out at 97.7%, the inhibition at 1 µM was found to be 86.6% and the pIC50 is > 7.30. Also, on human TRPA1, the inhibition at 1 µM stood at 95.6%, the inhibition at 10 µM turned out to be 98.3% and the pIC50 was > 7.30.
Take `Cc1oc2c(c1CC(=O)Nc1nc(-c3ccc(C(F)(F)F)cc3)cs1)c(=O)n(C)c(=O)n2C` [Example 50, N1-{4-[4-(Trifluoromethyl)phenyl]-1,3-thiazol-2-yl}-2-(1,3,6-trimethyl-2,4-dioxo-1,2,3,4-tetrahydrofuro[2,3-d]pyrimidin-5-yl)acetamide]: at rat TRPA1, the inhibition at 10 µM was found to be 100% and the inhibition at 1 µM turned out to be 99.9%. Further, on human TRPA1, the inhibition at 1 µM was found to be 99.6% and the inhibition at 10 µM is 98.3%.
On to `Cc1oc2c(c1CC(=O)Nc1nc(-c3cccc(C(F)(F)F)c3)cs1)c(=O)n(C)c(=O)n2C` [Example 51, N1-{4-[3-(Trifluoromethyl)phenyl]-1,3-thiazol-2-yl}-2-(1,3,6-trimethyl-2,4-dioxo-1,2,3,4-tetrahydrofuro[2,3-d]pyrimidin-5-yl)acetamide], for which the inhibition at 10 µM at rat TRPA1 and at human TRPA1 was 100% each time. Also, the results for the inhibition at 1 µM on rat TRPA1 and at human TRPA1 were 100% and 99.8%, respectively.
With `Cc1oc2c(c1CC(=O)Nc1nc(-c3cccc(OC(F)(F)F)c3)cs1)c(=O)n(C)c(=O)n2C` [Example 52, N1-{4-[3-(Trifluoromethoxy)phenyl]-1,3-thiazol-2-yl}-2-(1,3,6-trimethyl-2,4-dioxo-1,2,3,4-tetrahydrofuro[2,3-d]pyrimidin-5-yl)acetamide], at rat TRPA1, the inhibition at 10 µM came out at 100% and the inhibition at 1 µM was determined as 100%. Besides, at human TRPA1, the inhibition at 1 µM worked out at 99.1% and the inhibition at 10 µM amounted to 99.2%.
`Cc1oc2c(c1CC(=O)Nc1nc(-c3ccc(OC(F)(F)F)cc3)cs1)c(=O)n(C)c(=O)n2C` [Example 53, N1-{4-[4-(Trifluoromethoxy)phenyl]-1,3-thiazol-2-yl}-2-(1,3,6-trimethyl-2,4-dioxo-1,2,3,4-tetrahydrofuro[2,3-d]pyrimidin-5-yl)acetamide]: on rat TRPA1, the inhibition at 10 µM is 100% and the inhibition at 1 µM amounted to 100%. On human TRPA1, the inhibition at 1 µM is 99.7% and the inhibition at 10 µM stood at 97.3%.
As for `Cc1oc2c(c1CC(=O)Nc1nc(-c3ccc(Cl)c(Cl)c3)cs1)c(=O)n(C)c(=O)n2C` [Example 54, N1-[4-(3,4-Dichlorophenyl)-1,3-thiazol-2-yl]-2-(1,3,6-trimethyl-2,4-dioxo-1,2,3,4-tetrahydrofuro[2,3-d]pyrimidin-5-yl)acetamide], the pIC50 at rat TRPA1 is 7.00 to 7.30; on human TRPA1 it was > 7.30.
As to `Cc1oc2c(c1CC(=O)Nc1nc(-c3cccc(Cl)c3Cl)cs1)c(=O)n(C)c(=O)n2C` [Example 55, N1-[4-(2,3-Dichlorophenyl)-1,3-thiazol-2-yl]-2-(1,3,6-trimethyl-2,4-dioxo-1,2,3,4-tetrahydrofuro[2,3-d]pyrimidin-5-yl)acetamide], on rat TRPA1, the inhibition at 10 µM is 100% and the inhibition at 1 µM was 97.7%. On human TRPA1, the inhibition at 1 µM was found to be 95.8% and the inhibition at 10 µM came to 99%.
As for `Cc1oc2c(c1CC(=O)Nc1nc(-c3ccc(F)c(C(F)(F)F)c3)cs1)c(=O)n(C)c(=O)n2C` [Example 58, N1-{4-[4-Fluoro-3-(trifluoromethyl)phenyl]-1,3-thiazol-2-yl}-2-(1,3,6-trimethyl-2,4-dioxo-1,2,3,4-tetrahydrofuro[2,3-d]pyrimidin-5-yl)acetamide], the pIC50 at rat TRPA1 and on human TRPA1 was > 7.30 throughout.
As for `Cc1oc2c(c1CC(=O)Nc1nc(-c3ccc(C(F)(F)F)c(F)c3)cs1)c(=O)n(C)c(=O)n2C` [Example 59, N1-{4-[3-Fluoro-4-(trifluoromethyl)phenyl]-1,3-thiazol-2-yl}-2-(1,3,6-trimethyl-2,4-dioxo-1,2,3,4-tetrahydrofuro[2,3-d]pyrimidin-5-yl)acetamide], the pIC50 on rat TRPA1 is 7.00 to 7.30; on human TRPA1 it was > 7.30.
As for `Cc1oc2c(c1CC(=O)Nc1nc(-c3ccc(C(F)(F)F)cc3F)cs1)c(=O)n(C)c(=O)n2C` [Example 60, N1-{-4-(2-Fluoro-4-(trifluoromethyl)phenyl]-1,3-thiazol-2-yl}-2-(1,3,6-trimethyl-2,4-dioxo-1,2,3,4-tetrahydrofuro[2,3-d]pyrimidin-5-yl)acetamide], at rat TRPA1, the inhibition at 10 µM was found to be 99.7%, the inhibition at 1 µM came to 99.3% and the pIC50 was 7.00 to 7.30. Besides, on human TRPA1, the negative logarithm of the IC50 (pIC50) was > 7.30.
Turning to `Cc1oc2c(c1CC(=O)Nc1nc(-c3cccc(C(F)(F)F)c3F)cs1)c(=O)n(C)c(=O)n2C` [Example 61, N1-{4-[2-Fluoro-3-(trifluoromethyl)phenyl]-1,3-thiazol-2-yl}-2-(1,3,6-trimethyl-2,4-dioxo-1,2,3,4-tetrahydrofuro[2,3-d]pyrimidin-5-yl)acetamide], the pIC50 on rat TRPA1 and on human TRPA1 was > 7.30 each time.
With `Cc1oc2c(c1CC(=O)Nc1nc(-c3cc(F)cc(C(F)(F)F)c3)cs1)c(=O)n(C)c(=O)n2C` [Example 62, N1-{4-[3-Fluoro-5-(trifluoromethyl)phenyl]-1,3-thiazol-2-yl}-2-(1,3,6-trimethyl-2,4-dioxo-1,2,3,4-tetrahydrofuro[2,3-d]pyrimidin-5-yl)acetamide], the pIC50 on rat TRPA1 and at human TRPA1 was > 7.30 each time.

(Values after patent publication US20120178766A1, “FUROPYRIMIDINEDIONE DERIVATIVES AS TRPAI MODULATORS” (priority 2009, published 2012).)
